Measurements published in BindingDB's records for doi:10.1111/j.1747-0285.2012.01371.x (Korea Research Institute of Chemical Technology, 2012).

Target: 5-lipoxygenase (Rattus norvegicus)
Assay: 5-LOX enzyme assay was carried out with some modifications of ferric oxidation of xylenol orange (FOX) assay, which is based on the complex formation of Fe3+/ xylenol orange with absorption at visible light.
Settings: pH 7.4

| IC50 | Structure (SMILES) |
| --- | --- |
| 421 nM | Nc1ccccc1Nc1nc(-c2ccc(Cl)cc2)cs1 [N-aryl-4-aryl-1,3-thiazole-2-amine, 29] |
| 127 nM | Cc1cc(Nc2nc(-c3ccc(Cl)cc3)cs2)cc(C)c1O [N-aryl-4-aryl-1,3-thiazole-2-amine, 14] |
| 65 nM | Oc1ccc(Nc2nc(-c3cccc(F)c3)cs2)cc1 [N-aryl-4-aryl-1,3-thiazole-2-amine, 8] |
| 60 nM | Nc1ccc(Nc2nc(-c3cc(Cl)ccc3Cl)cs2)cc1 [N-aryl-4-aryl-1,3-thiazole-2-amine, 31] |
| 105 nM | Nc1ccc(Nc2nc(-c3ccc(F)cc3)cs2)cc1 [N-aryl-4-aryl-1,3-thiazole-2-amine, 25] |
| 63 nM | Cc1cc(Nc2nc(-c3ccc(F)cc3)cs2)cc(Cl)c1O [N-aryl-4-aryl-1,3-thiazole-2-amine, 15] |
| 120 nM | Nc1ccc(Nc2nc(-c3ccccc3)cs2)cc1 [N-aryl-4-aryl-1,3-thiazole-2-amine, 24] |
| 201 nM | Nc1ccc(Nc2nc(-c3ccc(Br)cc3)cs2)cc1 [N-aryl-4-aryl-1,3-thiazole-2-amine, 26] |
| 81 nM | Oc1ccc(Nc2nc(-c3ccccc3F)cs2)cc1 [N-aryl-4-aryl-1,3-thiazole-2-amine, 7] |
| 93 nM | Oc1c(Cl)cc(Nc2nc(-c3ccc(F)cc3)cs2)cc1Cl [N-aryl-4-aryl-1,3-thiazole-2-amine, 16] |
| 92 nM | Oc1ccc(Nc2nc(-c3cc(Cl)ccc3Cl)cs2)cc1 [N-aryl-4-aryl-1,3-thiazole-2-amine, 11] |
| 104 nM | Cc1cc(Nc2nc(-c3ccc(F)cc3)cs2)c(C)cc1O [N-aryl-4-aryl-1,3-thiazole-2-amine, 17] |
| 70 nM | Nc1ccc(Nc2nc(-c3ccc(F)cc3F)cs2)cc1 [N-aryl-4-aryl-1,3-thiazole-2-amine, 32] |
| 25 nM | O=[N+]([O-])c1ccc(-c2csc(Nc3ccc(O)cc3)n2)cc1 [N-aryl-4-aryl-1,3-thiazole-2-amine, 6] |
| 146 nM | Oc1c(Cl)cc(Nc2nc(-c3ccc(Cl)cc3)cs2)cc1Cl [N-aryl-4-aryl-1,3-thiazole-2-amine, 13] |
| 92 nM | Nc1ccc(Nc2nc(-c3ccc([N+](=O)[O-])cc3)cs2)cc1 [N-aryl-4-aryl-1,3-thiazole-2-amine, 28] |
| 82 nM | Oc1ccc(Nc2nc(-c3ccc(Br)cc3)cs2)cc1 [N-aryl-4-aryl-1,3-thiazole-2-amine, 4] |
| 85 nM | Oc1ccc(Nc2nc(-c3ccc(F)cc3F)cs2)cc1 [N-aryl-4-aryl-1,3-thiazole-2-amine, 12] |
